Test results as given in ChEMBL document CHEMBL1201862, “PubChem BioAssay data set” (2004).
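Cells were grown in 96-well plates and exposed to each compound for 48 hours at five concentrations; endpoints were interpolated linearly between bracketing concentrations, or set to the highest concentration if not reached. GI50: concentration for 50% inhibition of growth.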 Calls of active or inactive are those of the source. No stated cut-off is given here; in the data, active = GI50 up to about 1.1 µM and inactive = higher.

How the values were obtained:
Experiment in all cases: growth of human tumour cells (NCI), 48 h
Hs-578T = tested on: Hs-578T
RPMI-8226 = tested on: RPMI-8226
HOP-62 = tested on: HOP-62
BT-549 = tested on: BT-549
SN12C = tested on: SN12C
UACC-62 = tested on: UACC-62
CAKI-1 = tested on: CAKI-1
HCT-116 = tested on: HCT-116
SNB-19 = tested on: SNB-19
NCI-H226 = tested on: NCI-H226
HOP-92 = tested on: HOP-92
MDA-MB-231 = tested on: MDA-MB-231
SNB-75 = tested on: SNB-75
SW-620 = tested on: SW-620
A498 = tested on: A498
UO-31 = tested on: UO-31
NCI-H23 = tested on: NCI-H23
MOLT-4 = tested on: MOLT-4
786-0 = tested on: 786-0
NCI-H522 = tested on: NCI-H522

Compound	GI50 (Hs-578T)	GI50 (RPMI-8226)	GI50 (HOP-62)	GI50 (BT-549)	GI50 (SN12C)	GI50 (UACC-62)	GI50 (CAKI-1)	GI50 (HCT-116)	GI50 (SNB-19)	GI50 (NCI-H226)	GI50 (HOP-92)	GI50 (MDA-MB-231)	GI50 (SNB-75)	GI50 (SW-620)	GI50 (A498)	GI50 (UO-31)	GI50 (NCI-H23)	GI50 (MOLT-4)	GI50 (786-0)	GI50 (NCI-H522)
O=C(ON=c1c2ccccc2ccc2ccccc12)c1ccccc1	22.2 µM (inactive)	24.4 µM (inactive)	22 µM (inactive)	31.6 µM (inactive)	27.2 µM (inactive)	16.2 µM (inactive)	24.4 µM (inactive)	13.9 µM (inactive)	26.1 µM (inactive)	22.3 µM (inactive)	26.2 µM (inactive)	22.9 µM (inactive)	26.5 µM (inactive)	18.1 µM (inactive)	22.1 µM (inactive)	25.5 µM (inactive)	37.5 µM (inactive)	7.96 µM (inactive)	23.6 µM (inactive)	20.7 µM (inactive)
CCN(CC)c1ccc(/C=C/C(=O)c2cc(C(C)(C)C)c(O)c(C(C)(C)C)c2)cc1	5.93 µM (inactive)	4.94 µM (inactive)	27 µM (inactive)	8.24 µM (inactive)	27.4 µM (inactive)	6.81 µM (inactive)	5.14 µM (inactive)	3.21 µM (inactive)	38 µM (inactive)	39.3 µM (inactive)	> 100 µM (inactive)	9.2 µM (inactive)	4.9 µM (inactive)	4.84 µM (inactive)	31.3 µM (inactive)	17.6 µM (inactive)	9.77 µM (inactive)	4.49 µM (inactive)	14.2 µM (inactive)	3.07 µM (inactive)
CC(C)(C)c1nc2c(o1)C(=O)c1ccccc1C2=O	0.927 µM (active)	1.93 µM (inactive)	3.37 µM (inactive)	1.51 µM (inactive)	0.959 µM (active)	0.653 µM (active)	2.78 µM (inactive)	0.838 µM (active)	5.19 µM (inactive)	3.3 µM (inactive)	3.05 µM (inactive)	0.385 µM (active)	2.96 µM (inactive)	1.58 µM (inactive)	6.21 µM (inactive)	2.81 µM (inactive)	0.373 µM (active)	1.76 µM (inactive)	2.75 µM (inactive)	1.43 µM (inactive)
CC(C)(C)COS(=O)OCC(C)(C)C	> 100 µM (inactive)	> 100 µM (inactive)	> 100 µM (inactive)	> 100 µM (inactive)	> 100 µM (inactive)	> 100 µM (inactive)	> 100 µM (inactive)	> 100 µM (inactive)	> 100 µM (inactive)	> 100 µM (inactive)	> 100 µM (inactive)	> 100 µM (inactive)	> 100 µM (inactive)	> 100 µM (inactive)	> 100 µM (inactive)	> 100 µM (inactive)	> 100 µM (inactive)	> 100 µM (inactive)	> 100 µM (inactive)	> 100 µM (inactive)
N=C(N)N/N=C/c1c(-c2ccc(Cl)cc2)nc2sccn12	4.97 µM (inactive)	2.61 µM (inactive)	1.79 µM (inactive)	3.01 µM (inactive)	1.95 µM (inactive)	1.69 µM (inactive)	3.21 µM (inactive)	1.6 µM (inactive)	4.09 µM (inactive)	2.21 µM (inactive)	2.1 µM (inactive)	2.77 µM (inactive)	1.77 µM (inactive)	1.55 µM (inactive)	3.11 µM (inactive)	2.48 µM (inactive)	4.43 µM (inactive)	2 µM (inactive)	1.61 µM (inactive)	1.56 µM (inactive)
CN(C)c1ccc(/C=C(\NC(=O)c2ccccc2)C(=O)NC(CCC(=O)O)C(=O)O)cc1 (stereo not given)	> 100 µM (inactive)	> 100 µM (inactive)	> 100 µM (inactive)	> 100 µM (inactive)	> 100 µM (inactive)	> 100 µM (inactive)	> 100 µM (inactive)	> 100 µM (inactive)	> 100 µM (inactive)	> 100 µM (inactive)	> 100 µM (inactive)	> 100 µM (inactive)	> 100 µM (inactive)	> 100 µM (inactive)	> 100 µM (inactive)	> 100 µM (inactive)	> 100 µM (inactive)	> 100 µM (inactive)	> 100 µM (inactive)	> 100 µM (inactive)
CCc1nc(N)nc(N)c1-c1ccc(N2CCNCC2)cc1	> 100 µM (inactive)	> 56.1 µM (inactive)	55.8 µM (inactive)	64 µM (inactive)	87.7 µM (inactive)	69 µM (inactive)	> 97.3 µM (inactive)	35.2 µM (inactive)	47.6 µM (inactive)	> 100 µM (inactive)	> 100 µM (inactive)	> 93.3 µM (inactive)	> 100 µM (inactive)	56.5 µM (inactive)	> 97.1 µM (inactive)	> 100 µM (inactive)	46 µM (inactive)	41 µM (inactive)	60.5 µM (inactive)	55.1 µM (inactive)
NCCCCNCCCN1CC1	0.433 µM (active)	8 µM (inactive)	0.92 µM (active)	1.06 µM (active)	1.19 µM (inactive)	5.18 µM (inactive)	0.0893 µM (active)	2.42 µM (inactive)	1.86 µM (inactive)	2.67 µM (inactive)	0.279 µM (active)	0.624 µM (active)	0.246 µM (active)	4.16 µM (inactive)	0.319 µM (active)	1.77 µM (inactive)	2.57 µM (inactive)	1 µM (active)	0.359 µM (active)	2.47 µM (inactive)
CCCCCCCCCCCCOP(=O)(O)OCC(N)C(=O)O (stereo not given)	10.3 µM (inactive)	24.7 µM (inactive)	15.4 µM (inactive)	21.2 µM (inactive)	22.1 µM (inactive)	–	30.1 µM (inactive)	12.1 µM (inactive)	16.3 µM (inactive)	19.7 µM (inactive)	20.5 µM (inactive)	23.9 µM (inactive)	18.5 µM (inactive)	44.4 µM (inactive)	24.6 µM (inactive)	15.5 µM (inactive)	29.9 µM (inactive)	11.2 µM (inactive)	30.2 µM (inactive)	31.8 µM (inactive)
N#Cc1c(NC(=O)CCC(=O)O)ccc2ccccc12	> 100 µM (inactive)	> 100 µM (inactive)	> 100 µM (inactive)	> 100 µM (inactive)	> 100 µM (inactive)	> 100 µM (inactive)	> 100 µM (inactive)	> 100 µM (inactive)	> 100 µM (inactive)	> 100 µM (inactive)	> 100 µM (inactive)	> 100 µM (inactive)	64.1 µM (inactive)	> 100 µM (inactive)	> 100 µM (inactive)	> 100 µM (inactive)	> 100 µM (inactive)	–	> 100 µM (inactive)	> 100 µM (inactive)
CC(C)(C)C(=O)OC(N)/C=C/c1ccccc1 (stereo not given)	> 100 µM (inactive)	> 100 µM (inactive)	> 100 µM (inactive)	> 100 µM (inactive)	> 100 µM (inactive)	> 100 µM (inactive)	> 100 µM (inactive)	> 100 µM (inactive)	–	> 100 µM (inactive)	> 100 µM (inactive)	> 100 µM (inactive)	> 100 µM (inactive)	> 100 µM (inactive)	> 100 µM (inactive)	> 100 µM (inactive)	> 100 µM (inactive)	> 100 µM (inactive)	> 100 µM (inactive)	> 100 µM (inactive)
C=C(C(=O)O)[C@@H]1C[C@@H]2O[C@H]1CC(C)=CCC/C(C)=C/CC[C@@]2(C)O	> 100 µM (inactive)	> 100 µM (inactive)	–	> 100 µM (inactive)	> 100 µM (inactive)	> 100 µM (inactive)	> 100 µM (inactive)	> 100 µM (inactive)	> 100 µM (inactive)	> 100 µM (inactive)	93.5 µM (inactive)	> 100 µM (inactive)	> 100 µM (inactive)	> 100 µM (inactive)	> 100 µM (inactive)	> 100 µM (inactive)	–	> 100 µM (inactive)	> 100 µM (inactive)	> 100 µM (inactive)
CC(=O)/N=C1/N(/C=C2\C(=O)Oc3ccccc3C2=O)C(=O)/C(=C/c2cccc(Cl)c2Cl)N1C	3.87 µM (inactive)	12.4 µM (inactive)	19.7 µM (inactive)	20.4 µM (inactive)	42.6 µM (inactive)	31 µM (inactive)	27.4 µM (inactive)	29.4 µM (inactive)	–	24 µM (inactive)	0.0333 µM (active)	29.9 µM (inactive)	17.3 µM (inactive)	29.9 µM (inactive)	4.68 µM (inactive)	–	23.9 µM (inactive)	20.7 µM (inactive)	34.3 µM (inactive)	18.2 µM (inactive)
COc1ccc2nc3c(nc2c1)C(C)(C)C=C3c1ccc(Br)cc1	> 100 µM (inactive)	> 100 µM (inactive)	> 100 µM (inactive)	> 100 µM (inactive)	> 100 µM (inactive)	–	> 100 µM (inactive)	> 100 µM (inactive)	> 100 µM (inactive)	> 100 µM (inactive)	32.5 µM (inactive)	> 100 µM (inactive)	87.7 µM (inactive)	5.68 µM (inactive)	> 100 µM (inactive)	–	–	> 100 µM (inactive)	> 100 µM (inactive)	> 100 µM (inactive)
